Measurements from the NIST ThermoML archive (doi:10.1016/j.fluid.2015.03.016).
Several values for one entry are separate records, joined by “and”; a condition that tells them apart may be missing. Equal values may be shown once.

Settings: Liquid

CCCOC(=O)CCCCC(=O)OCCC [dipropyl hexanedioate]
Settings	viscosity
303.14 K, 1110 kPa, Vibrating wire viscometry	3.606 mPa·s and 3.607 mPa·s
303.14 K, 1140 kPa, Vibrating wire viscometry	3.609 mPa·s
303.14 K, 5210 kPa, Vibrating wire viscometry	3.78 mPa·s
303.14 K, 5220 kPa, Vibrating wire viscometry	3.781 mPa·s and 3.776 mPa·s
303.14 K, 18280 kPa, Vibrating wire viscometry	4.327 mPa·s
303.14 K, 18290 kPa, Vibrating wire viscometry	4.33 mPa·s and 4.331 mPa·s
303.15 K, 2810 kPa, Vibrating wire viscometry	3.653 mPa·s and 3.654 mPa·s
303.15 K, 2820 kPa, Vibrating wire viscometry	3.657 mPa·s
303.15 K, 10310 kPa, Vibrating wire viscometry	3.975 mPa·s
303.15 K, 10320 kPa, Vibrating wire viscometry	3.972 mPa·s
303.15 K, 15230 kPa, Vibrating wire viscometry	4.218 mPa·s
303.15 K, 15260 kPa, Vibrating wire viscometry	4.213 mPa·s
303.15 K, 15310 kPa, Vibrating wire viscometry	4.218 mPa·s
313.15 K, 2710 kPa, Vibrating wire viscometry	2.934 mPa·s and 2.931 mPa·s
313.15 K, 15330 kPa, Vibrating wire viscometry	3.354 mPa·s and 3.356 mPa·s and 3.358 mPa·s
313.15 K, 18290 kPa, Vibrating wire viscometry	3.441 mPa·s and 3.443 mPa·s
313.16 K, 1200 kPa, Vibrating wire viscometry	2.882 mPa·s
313.16 K, 1210 kPa, Vibrating wire viscometry	2.879 mPa·s
313.16 K, 1220 kPa, Vibrating wire viscometry	2.882 mPa·s
313.16 K, 2700 kPa, Vibrating wire viscometry	2.933 mPa·s
313.16 K, 5180 kPa, Vibrating wire viscometry	3.01 mPa·s
313.16 K, 5190 kPa, Vibrating wire viscometry	3.016 mPa·s
313.16 K, 10460 kPa, Vibrating wire viscometry	3.178 mPa·s
313.16 K, 10480 kPa, Vibrating wire viscometry	3.176 mPa·s
313.16 K, 10490 kPa, Vibrating wire viscometry	3.177 mPa·s
313.16 K, 18290 kPa, Vibrating wire viscometry	3.445 mPa·s
313.18 K, 101.33 kPa, Capillary tube (Ostwald / Ubbelohde) method	2.888 mPa·s
323.1 K, 101.33 kPa, Capillary tube (Ostwald / Ubbelohde) method	2.352 mPa·s
323.15 K, 1160 kPa, Vibrating wire viscometry	2.359 mPa·s
323.15 K, 1170 kPa, Vibrating wire viscometry	2.356 mPa·s
323.15 K, 1180 kPa, Vibrating wire viscometry	2.36 mPa·s
323.15 K, 15180 kPa, Vibrating wire viscometry	2.729 mPa·s
323.16 K, 2710 kPa, Vibrating wire viscometry	2.409 mPa·s and 2.408 mPa·s
323.16 K, 2720 kPa, Vibrating wire viscometry	2.412 mPa·s
323.16 K, 5260 kPa, Vibrating wire viscometry	2.464 mPa·s
323.16 K, 5270 kPa, Vibrating wire viscometry	2.462 mPa·s
323.16 K, 15200 kPa, Vibrating wire viscometry	2.731 mPa·s
323.17 K, 10210 kPa, Vibrating wire viscometry	2.598 mPa·s
323.17 K, 10220 kPa, Vibrating wire viscometry	2.597 mPa·s
323.17 K, 18240 kPa, Vibrating wire viscometry	2.814 mPa·s
323.17 K, 18260 kPa, Vibrating wire viscometry	2.816 mPa·s
323.17 K, 18270 kPa, Vibrating wire viscometry	2.812 mPa·s
333.14 K, 2610 kPa, Vibrating wire viscometry	2.006 mPa·s
333.14 K, 2620 kPa, Vibrating wire viscometry	2.009 mPa·s
333.15 K, 2620 kPa, Vibrating wire viscometry	2.009 mPa·s
333.15 K, 5110 kPa, Vibrating wire viscometry	2.05 mPa·s and 2.052 mPa·s
333.15 K, 5130 kPa, Vibrating wire viscometry	2.052 mPa·s
333.15 K, 15200 kPa, Vibrating wire viscometry	2.274 mPa·s
333.15 K, 15220 kPa, Vibrating wire viscometry	2.273 mPa·s
333.15 K, 18260 kPa, Vibrating wire viscometry	2.339 mPa·s
333.15 K, 18290 kPa, Vibrating wire viscometry	2.338 mPa·s
333.15 K, 18300 kPa, Vibrating wire viscometry	2.343 mPa·s
333.16 K, 1090 kPa, Vibrating wire viscometry	1.975 mPa·s
333.16 K, 1100 kPa, Vibrating wire viscometry	1.979 mPa·s
333.16 K, 1120 kPa, Vibrating wire viscometry	1.979 mPa·s
333.16 K, 10160 kPa, Vibrating wire viscometry	2.167 mPa·s
333.16 K, 10180 kPa, Vibrating wire viscometry	2.163 mPa·s
333.16 K, 10190 kPa, Vibrating wire viscometry	2.165 mPa·s
333.16 K, 15220 kPa, Vibrating wire viscometry	2.273 mPa·s
333.22 K, 101.33 kPa, Capillary tube (Ostwald / Ubbelohde) method	1.97 mPa·s
